From ChEMBL document CHEMBL1201862, “PubChem BioAssay data set” (2004) come the findings set out here.

Some test systems named below: OVCAR-4; UACC-62; NCI-H522; HOP-62; SNB-19; UO-31; NCI-H460; NCI-H23; TK-10; SK-MEL-5; CAKI-1; M14; KM12; HL-60; SW-620; HCC 2998; HCT-116.
Holding throughout (experiment): inhibition of tumour cell growth, NCI panel, 48 h

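Results reflect a 48-hour exposure of cells in 96-well plates to compound at five concentrations. GI50: concentration for 50% inhibition of growth.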 The source made the active and inactive calls. Rule as the data show it: active = GI50 up to about 1.1 µM and inactive = higher.

As to `Cc1cccc(NC(=O)Cc2nc3ccccc3s2)c1C`, the GI50 with OVCAR-4, in the assay on UACC-62, with NCI-H522, in the assay with HOP-62, in the assay on SNB-19 and in the assay on UO-31 was > 100 µM (inactive) in each case. Further, the GI50 in the assay on NCI-H460, in the assay with NCI-H23, with TK-10, in the assay on SK-MEL-5, with CAKI-1 and in the assay with M14 was > 100 µM (inactive) throughout. Besides, the GI50 with KM12, with HL-60, with SW-620 and in the assay with HCC 2998 was > 100 µM (inactive) each time.
Regarding `COc1ccc2nc3cc(Cl)ccc3c(Sc3ccc([N+](=O)[O-])cc3)c2c1`, the GI50 with OVCAR-4, with UACC-62, in the assay on NCI-H522, in the assay on HOP-62, in the assay with SNB-19 and in the assay on UO-31 was > 10 µM (inactive) each time. The GI50 in the assay with HCT-116, in the assay on NCI-H460, in the assay on NCI-H23, in the assay on TK-10, in the assay with SK-MEL-5 and in the assay with CAKI-1 was > 10 µM (inactive) throughout. Besides, the GI50 was > 10 µM (inactive) in the assay on M14; > 10 µM (inactive) with KM12; > 100 µM (inactive) in the assay with HL-60; > 10 µM (inactive) in the assay with SW-620; > 10 µM (inactive) with HCC 2998.
Turning to `COc1ccc(C2[C@H]3C(=O)N(c4ccc(Cc5ccc(N6C(=O)[C@@H]7ON(c8ccccc8)C(c8ccc(OC)cc8)[C@@H]7C6=O)cc5)cc4)C(=O)[C@H]3ON2c2ccccc2)cc1` (stereo partly drawn), the GI50 with OVCAR-4, in the assay with UACC-62, in the assay with NCI-H522, with HOP-62, in the assay on SNB-19 and in the assay with UO-31 was > 100 µM (inactive) in each case. For the same compound, the GI50 in the assay on HCT-116 was > 100 µM (inactive); in the assay with NCI-H460, > 100 µM (inactive); in the assay with NCI-H23, > 100 µM (inactive); in the assay on TK-10, > 100 µM (inactive); in the assay with SK-MEL-5, 96.6 µM (inactive); in the assay with CAKI-1 it was > 100 µM (inactive). The GI50 in the assay with M14 is 23.1 µM (inactive); in the assay on KM12, > 100 µM (inactive); in the assay on HL-60, > 100 µM (inactive); with SW-620 it was > 100 µM (inactive); with HCC 2998 it was > 100 µM (inactive).
On to `CCCCCCCCCCCC1CC(=O)NCCCN(C)CCCCN(C)CCCN1C` (stereo not drawn) [BUDMUNCHIAMINE A], for which the GI50 in the assay with OVCAR-4 is 1.74 µM (inactive); with UACC-62 it was 1.68 µM (inactive); with NCI-H522, 1.81 µM (inactive); with HOP-62, 1.66 µM (inactive); with SNB-19, 1.7 µM (inactive); in the assay on UO-31, 1.72 µM (inactive). In addition, the GI50 is 1.55 µM (inactive) in the assay with HCT-116; 1.36 µM (inactive) in the assay with NCI-H460; 1.73 µM (inactive) with NCI-H23; 1.73 µM (inactive) with TK-10; 1.97 µM (inactive) in the assay with SK-MEL-5; 2.08 µM (inactive) in the assay on CAKI-1. In addition, the GI50 in the assay with M14 was 1.8 µM (inactive); in the assay with KM12, 1.58 µM (inactive); in the assay with HL-60 it was 0.395 µM (active); in the assay on SW-620 it was 1.06 µM (active); with HCC 2998, 1.74 µM (inactive).
With `O=C1c2c(n(Cc3ccccc3)c(=O)n2Cc2ccccc2)C(=O)N1Cc1ccccc1`, the GI50 with OVCAR-4 is 46.5 µM (inactive); in the assay on UACC-62 it was 41.4 µM (inactive); in the assay on NCI-H522, 56.1 µM (inactive); in the assay with HOP-62, > 100 µM (inactive); in the assay on SNB-19, 89.1 µM (inactive); in the assay with UO-31 it was 50.2 µM (inactive). For the same compound, the GI50 with HCT-116 was 40.3 µM (inactive); in the assay with NCI-H460, 72.4 µM (inactive); with NCI-H23 it was 38.6 µM (inactive); in the assay on TK-10, > 100 µM (inactive); with SK-MEL-5, 50.5 µM (inactive); with CAKI-1, 65.8 µM (inactive). Further, the GI50 in the assay with M14 was > 100 µM (inactive); in the assay with KM12, 55.5 µM (inactive); with HL-60 it was 0.782 µM (active); in the assay with SW-620 it was 47.9 µM (inactive); in the assay on HCC 2998, 61.4 µM (inactive).
`Clc1ncnc2c1ncn2CCCCCCCCCCCCn1cnc2c(Cl)ncnc21`: the GI50 in the assay with OVCAR-4 is 11.1 µM (inactive); in the assay on UACC-62, 13.9 µM (inactive); with NCI-H522, 1.48 µM (inactive); in the assay on HOP-62, 18.6 µM (inactive); with SNB-19 it was 14.7 µM (inactive); with UO-31 it was 13.1 µM (inactive). Besides, the GI50 with HCT-116 is 10.7 µM (inactive); with NCI-H460, 16.4 µM (inactive); in the assay on NCI-H23, 2.49 µM (inactive); in the assay with TK-10, 22.1 µM (inactive); in the assay with SK-MEL-5, 4.83 µM (inactive); with CAKI-1, 3.4 µM (inactive). In addition, the GI50 was 15.3 µM (inactive) in the assay with M14; 15.5 µM (inactive) with KM12; 2.7 µM (inactive) in the assay with HL-60; 22.4 µM (inactive) with SW-620; 6.7 µM (inactive) in the assay on HCC 2998.
For `COC(=O)c1c(CC(=O)OC(C)C)cc2n(c1=O)Cc1c-2nc2ccccc2c1OC`, the GI50 in the assay on OVCAR-4, in the assay on UACC-62, with NCI-H522, with HOP-62, in the assay on SNB-19 and in the assay with UO-31 was > 100 µM (inactive) throughout. Besides, the GI50 in the assay on HCT-116, with NCI-H460, in the assay with NCI-H23, in the assay on TK-10, in the assay on SK-MEL-5 and in the assay with CAKI-1 was > 100 µM (inactive) in each case. Moreover, the GI50 with M14, in the assay with HL-60, in the assay on SW-620 and with HCC 2998 was > 100 µM (inactive) throughout.
`CCO/C(CCn1[nH]c(=O)c(Cl)c(Cl)c1=O)=N\NC(=O)C(=O)NN`: the GI50 in the assay on OVCAR-4, with UACC-62, with NCI-H522, in the assay on HOP-62, in the assay with SNB-19 and in the assay with UO-31 was > 100 µM (inactive) in each case. Further, the GI50 in the assay on NCI-H460, in the assay with NCI-H23, with TK-10, in the assay on SK-MEL-5, in the assay with CAKI-1 and in the assay on M14 was > 100 µM (inactive) each time. Further, the GI50 in the assay on KM12, in the assay on HL-60, in the assay with SW-620 and in the assay with HCC 2998 was > 100 µM (inactive) each time.
